As usually defined, the EC50 is the concentration giving half of the maximal effect. As usually defined, the viability is a read-out of living cells in per cent, often relative to untreated cells.

Series [1] in a line: in vitro. Conditions: African green monkey; for viability at 0.625 µM / viability at 1.25 µM / viability at 5 µM / viability at 20 µM: Cell viability (%).
Series [2] relates to SARS-CoV-2 (USA-WA1/2020). In words: microbe, parasite or virus in culture. Type of series: cell-based. The conditions noted are these: for EC50: Severe acute respiratory syndrome coronavirus 2, Vero, 24 h, read-out: SARS-CoV-2 EC50.
A short description of series [3]: in vitro. The conditions noted are these: human, Huh7 cell viability (%).
Another series relates to VEEV (TC-83). Type of series: cell-based.
The next series has as its system DENV2. Type of series: cell-based.
Series [4] relates to SARS-CoV-2 (Belgium-GHB-03021). Type of series: cell-based.
Series [5] is described as follows: in vitro. Conditions: human, U-87 MG cell viability (%).

Where “and” joins values, the source holds several entries; their conditions need not be identical. Equal values may be shown once. Read-outs that look alike come from different tables or passages of the source.

For the molecule `[N-]=[N+]=CC(=O)OC[C@H](N)C(=O)O` [Azaserine], the CC50 in “in vitro [1]” is above 20 µM. The 50% effective concentration (EC50) in series [2] turned out to be 0.7 µM. In “in vitro [3]”, the viability at 0.37 µM amounted to 114%, the viability at 3.33 µM stood at 69.5%, the viability at 10 µM was 60.6% and the viability at […] was determined as 107%. In the series with VEEV (TC-83), the “replication of TC-83” value was “dose-dependently inhibited replication”. In the series with DENV2, the “replication of DENV2” value is on record as “dose-dependently inhibited replication”.

`CNc1ccc2oc(C[C@H]3O[C@@]4(CC[C@H]3C)O[C@H]([C@H](C)C(=O)c3ccc[nH]3)[C@H](C)C[C@H]4C)nc2c1C(=O)O` [Calcimycin]: the CC50 in “in vitro [1]” was above 20 µM. Also, the concentration for a half-maximal effect (EC50) in series [2] came out at 0.6 µM. Also, in the series “in vitro [3]”, the viability at 0.37 µM was 98%; the viability at 3.33 µM turned out to be 50.5%; the viability at 10 µM turned out to be 23.5%; the viability at […] is 77.7% and 102%. For the same molecule, the “replication of TC-83” value in the series on VEEV (TC-83) is reported as “dose-dependently inhibited replication”. Further, the “replication of DENV2” value in the series with DENV2 was “dose-dependently inhibited replication”.

`O=C1NCN(c2ccccc2)C12CCN(CCCC(c1ccc(F)cc1)c1ccc(F)cc1)CC2` [Fluspirilene]: in the series “in vitro [1]”, the CC50 is above 20 µM. Also, the EC50 in series [2] was 15.2 µM. Also, in “in vitro [3]”, the viability at 0.37 µM worked out at 93.4%; the viability at 3.33 µM was found to be 87.3%; the viability at 10 µM is 70.9%; the viability at […] was 93.9% and 95.5%. Moreover, the “anti-TC-83 and DENV2 activity compared with anti-SARS-CoV-2 activity” value in the series on VEEV (TC-83) is “more potent”.

For the molecule `N#C[C@@]1(c2ccc3c(N)ncnn23)O[C@H](CO)[C@@H](O)[C@H]1O` [GS-441524], the “rescue of Vero-eGFP cells from SARS-CoV-2-induced lethality, dose response” value in series [4] was “dose-dependent anti-SARS-CoV-2 activity”.

Take `O[C@H]1[C@H]2c3cc4c(cc3CN3CCC(=C[C@@H]1O)[C@H]23)OCO4` [Lycorine]: in the series “in vitro [5]”, the viability at 0.37 µM is 92.9%; the viability at 3.33 µM stood at 67.1%; the viability at 10 µM was found to be 61.2%; the viability at […] is 81.7% and 97.3%. In “in vitro [1]”, this molecule registered a CC50 above 20 µM. Also, the EC50 in series [2] was found to be 0.5 µM. Moreover, in the series “in vitro [3]”, the viability at 0.37 µM was determined as 93.2%; the viability at 3.33 µM was found to be 68.1%; the viability at 10 µM was 66.6%; the viability at […] is 82.9% and 95%. The “replication of TC-83” value with VEEV (TC-83) is listed as “dose-dependently inhibited replication”. The “replication of DENV2” value in the series with DENV2 is recorded as “dose-dependently inhibited replication”.

Turning to `COc1c(O)cc2oc3cc(O)c(CC=C(C)C)c(O)c3c(=O)c2c1CC=C(C)C` [Mangostin, 9H-Xanthen-9-one, 1,3,6-trihydroxy-7-methoxy-2,8-bis (3-methyl-2-butenyl)-], the “Fluorescence (%area)” value in series [4] worked out at 102.5 %area.

`CC[C@@]1([C@@H]2O[C@@H]([C@H]3O[C@@](O)(CO)[C@H](C)C[C@@H]3C)C[C@@H]2C)CC[C@H]([C@]2(C)CC[C@]3(C[C@H](O)[C@@H](C)[C@@H]([C@@H](C)[C@@H](OC)[C@H](C)C(=O)O)O3)O2)O1` [Monensin] displayed a CC50 in the series “in vitro [1]” above 20 µM. Also, in series [2], the EC50 is 1.2 µM. Moreover, in “in vitro [3]”, the viability at 0.37 µM is 70.5%; the viability at 3.33 µM was 32.2%; the viability at 10 µM stood at 22.1%; the viability at […] was 47.9% and 83.7%. Besides, in the series with VEEV (TC-83), the “replication of TC-83” value is given as “dose-dependently inhibited replication”. The “replication of DENV2” value in the series on DENV2 is on record as “dose-dependently inhibited replication”.

For the molecule `CCC(CC)COC(=O)[C@H](C)N[P@](=O)(OC[C@H]1O[C@@](C#N)(c2ccc3c(N)ncnn23)[C@H](O)[C@@H]1O)Oc1ccccc1` [Remdesivir], the “rescue of Vero-eGFP cells from SARS-CoV-2-induced lethality, dose response” value in series [4] is given as “dose-dependent anti-SARS-CoV-2 activity”.

On to `CC(C)(C)NCC(O)c1ccc(O)c(CO)c1` (stereo not drawn) [Salbutamol], for which, in “in vitro [1]”, the CC50 was above 20 µM. Also, in series [2], the “activity against SARS-CoV-2” value is listed as “minimal to no activity” and the EC50 is above 20 µM. Also, in the series with VEEV (TC-83), the “replication of TC-83” value is “minimal to no activity”. In addition, the “replication of DENV2” value in the series on DENV2 is “minimal to no activity”.

With `O=C(CCCN1CCC2(CC1)C(=O)NCN2c1ccccc1)c1ccc(F)cc1` [Spipe-rone], the viability at 0.37 µM in “in vitro [5]” amounted to 99.2%. The viability at 3.33 µM in “in vitro [5]” amounted to 101%. Besides, in “in vitro [5]”, the viability at 10 µM was 97%. Besides, the viability at […] in the series “in vitro [5]” was 99.5% and 99.9%. Besides, the viability at 0.625 µM in “in vitro [1]” was 91.9%. Further, the viability at 1.25 µM in the series “in vitro [1]” is 99.9%. Further, the viability at 5 µM in the series “in vitro [1]” is 94.3%. Also, in the series “in vitro [1]”, the viability at 20 µM was determined as 97.4%. Also, the “Cell viability (%)” value is 94.16% and 92.89% with Vero cells (0.625 μM); 101.11% with Vero cells (1.25 μM); 96.86% and 95.76% with Vero cells (5 μM); 101.04% with Vero cells (20 μM). The “SARS-CoV-2 infection (%)” value in series [2] (0.625 μM) is 124.72% and 114.61% and 131.46%; in series [2] (1.25 μM), 107.87% and 117.98% and 101.12%; in series [2] (5 μM), 15.17% and 17.19% and 12.81%; in series [2] (20 μM) it was 0.47% and 0.20% and 0.30%.

`COc1ccc2cc1Oc1ccc(cc1)C[C@H]1c3cc(c(OC)cc3CCN1C)Oc1c(OC)c(OC)cc3c1[C@H](C2)N(C)CC3` [Tetran-drine]: in the series “in vitro [5]”, the viability at 0.37 µM was 101%. In the series “in vitro [5]”, the viability at 3.33 µM came out at 101%. Also, in the series “in vitro [5]”, the viability at 10 µM came to 98.9%. Moreover, the viability at […] in the series “in vitro [5]” is 105% and 97.8%. Moreover, in “in vitro [1]”, the viability at 0.625 µM came to 94.4%. For the same molecule, the viability at 1.25 µM in “in vitro [1]” was determined as 101%. For the same molecule, in “in vitro [1]”, the viability at 5 µM amounted to 83.6%. In addition, the “Cell viability (%)” value in the series on Vero cells (0.625 μM) is 99.78%; with Vero cells (1.25 μM) it was 105.40% and 105.65%; in the series with Vero cells (5 μM) it was 86.02% and 86.44%; in the series with Vero cells (20 μM), 48.98% and 79.18% and 56.10%. The “SARS-CoV-2 infection (%)” value in series [2] (0.625 μM) was 107.87% and 117.98% and 101.12%; in series [2] (1.25 μM) it was 53.93% and 104.49% and 87.64%; in series [2] (5 μM) it was 0.61% and 0.84% and 0.88%; in series [2] (20 μM), 0.00337%.

Consider `COc1ccc2cc1Oc1ccc(cc1)C[C@H]1c3cc(c(OC)cc3CCN1C)Oc1c(OC)c(OC)cc3c1[C@H](C2)N(C)CC3` [Tetrandrine, Berbaman, 6,6',7, 12-tetramethoxy-2,2'-dimethyl-, (1β)-], for which, in “in vitro [1]”, the CC50 was above 20 µM. Also, in series [2], the 50% effective concentration (EC50) was found to be 1.4 µM. For the same molecule, in “in vitro [3]”, the viability at 3.33 µM was 93.9%; the viability at 10 µM turned out to be 44%; the viability at […] was 96.8% and 97%. In addition, the “Fluorescence (%area)” value in series [4] came to 93.6 %area.

`CC(C)(C)c1cc(/C=C(\C#N)C(N)=S)cc(C(C)(C)C)c1O` [Tyrphos-tin AG 879]: in “in vitro [5]”, the viability at 0.25 µM came out at 96.7%. Moreover, the viability at 0.74 µM in the series “in vitro [5]” turned out to be 85%. In “in vitro [5]”, the viability at 2.22 µM was 85.2%. The viability at 6.67 µM in the series “in vitro [5]” was determined as 78.3%. The viability at 20 µM in “in vitro [5]” was determined as 70.1%; in the series “in vitro [1]” it was 71%. Besides, the viability at 0.625 µM in “in vitro [1]” turned out to be 85.5%. Moreover, in “in vitro [1]”, the viability at 1.25 µM came to 87.2%. Besides, in the series “in vitro [1]”, the viability at 5 µM amounted to 78.7%. The “Cell viability (%)” value with Vero cells (0.625 μM) was 83.52% and 84.00%; in the series with Vero cells (1.25 μM), 88.30% and 88.47%; in the series on Vero cells (5 μM), 78.46% and 79.21%; with Vero cells (20 μM), 71.26% and 69.85%. For the same molecule, the “SARS-CoV-2 infection (%)” value in series [2] (0.625 μM) is 47.19% and 30.34% and 33.71%; in series [2] (1.25 μM), 7.75% and 5.73% and 5.06%; in series [2] (5 μM), 0.40% and 0.44% and 0.27%; in series [2] (20 μM) it was 0.00337%.

Consider `CC(C)(C)c1cc(C=C(C#N)C#N)cc(C(C)(C)C)c1O` [Tyrphostin A9], for which, in “in vitro [5]”, the viability at 0.25 µM worked out at 96.7%, the viability at 0.74 µM amounted to 85%, the viability at 2.22 µM was 85.2% and the viability at 6.67 µM came out at 78.3%. Besides, in the series “in vitro [5]”, the viability at 20 µM stood at 70.1%. The CC50 in “in vitro [1]” was above 20 µM. Besides, in series [2], the concentration giving a half-maximal response (EC50) was 16.5 µM. In the series “in vitro [3]”, the viability at 0.37 µM turned out to be 101%; the viability at 3.33 µM came out at 89.2%; the viability at 10 µM was 88%; the viability at […] is 90.8% and 98.7%. Besides, the “anti-TC-83 and DENV2 activity compared with anti-SARS-CoV-2 activity” value with VEEV (TC-83) is listed as “more potent”.

Molecule `CC(C)(C)c1cc(/C=C(\C#N)C(N)=S)cc(C(C)(C)C)c1O` [Tyrphostin AG 879] came in with a CC50 in the series “in vitro [1]” above 20 µM. In addition, the EC50 in series [2] was 0.6 µM. Besides, in “in vitro [3]”, the viability at 0.37 µM was 100%; the viability at 3.33 µM was determined as 98.8%; the viability at 10 µM is 95.1%; the viability at […] is 102% and 98.9%. For the same molecule, the “replication of TC-83” value with VEEV (TC-83) is listed as “dose-dependently inhibited replication”. Besides, the “replication of DENV2” value with DENV2 was “dose-dependently inhibited replication”.

As for `CC[C@@H](C(=O)[C@@H](C)[C@@H](O)[C@H](C)[C@@H]1O[C@@H]([C@@H](CC)C(=O)O)CC[C@@H]1C)[C@H]1O[C@]2(C=C[C@@H](O)[C@]3(CC[C@@](C)([C@H]4CC[C@](O)(CC)[C@H](C)O4)O3)O2)[C@H](C)C[C@@H]1C` [salinomycin], the “Fluorescence (%area)” value in series [4] is reported as “greater than 15”.

Source of the values: article PMC10541190 (The Journal of Clinical Investigation, 2023).
